According to patent US7553837B2, “Phenylazole compounds production process and antioxidants” (Nippon Soda Co., Ltd., priority 2003, dated 2009):

Columns and labels:
5-lipoxygenase (5-LO) = molecular target: T1, 5-lipoxygenase (5-LO) (Homo sapiens, UniProt P09917); assay: 5-lipoxygenase (5-LO) inhibitory activity, leukotriene B4 production in human peripheral blood mononuclear cells; type: cell-based; settings: for 5-LO, percentage given after >10: bracketed value beside IC50 >10 μM, not explained, presumably inhibition at 10 μM; for IC50: human peripheral blood mononuclear cells, A23187, leukotriene B4 production
T1 construct: human peripheral blood mononuclear cells and each of test compounds dissolved in DMSO (final concentration: 1%) were preincubated; endogenous in cells; host or cells: human peripheral blood mononuclear cells
T1 sequence (P09917 1-674): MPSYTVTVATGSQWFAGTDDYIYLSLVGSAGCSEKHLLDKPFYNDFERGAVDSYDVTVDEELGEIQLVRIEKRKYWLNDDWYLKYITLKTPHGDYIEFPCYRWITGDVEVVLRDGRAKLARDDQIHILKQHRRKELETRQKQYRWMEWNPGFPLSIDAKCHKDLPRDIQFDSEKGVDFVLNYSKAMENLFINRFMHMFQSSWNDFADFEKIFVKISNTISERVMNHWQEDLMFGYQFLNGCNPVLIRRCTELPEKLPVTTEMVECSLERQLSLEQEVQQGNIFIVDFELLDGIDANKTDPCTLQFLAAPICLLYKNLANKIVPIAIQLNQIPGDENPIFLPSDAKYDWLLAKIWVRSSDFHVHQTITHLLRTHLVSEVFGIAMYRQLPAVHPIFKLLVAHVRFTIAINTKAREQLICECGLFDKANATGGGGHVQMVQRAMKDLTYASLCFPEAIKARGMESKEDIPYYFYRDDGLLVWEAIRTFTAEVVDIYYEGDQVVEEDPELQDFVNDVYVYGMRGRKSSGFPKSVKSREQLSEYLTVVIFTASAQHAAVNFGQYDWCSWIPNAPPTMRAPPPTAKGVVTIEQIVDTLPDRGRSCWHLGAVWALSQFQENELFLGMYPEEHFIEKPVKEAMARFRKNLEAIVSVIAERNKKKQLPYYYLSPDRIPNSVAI
Procedure: A 5-LO inhibitory activity was measured by a partially modified process of a process of Carter et al. (Carter G. W, et al, J. Pharmacol. Exp. Ther.: 256, 929-37, 1991). That is, human peripheral blood mononuclear cells and each of test compounds dissolved in DMSO (final concentration: 1%) were preincubated (37° C., 15 minutes) in a Hanks' balanced salt solution and 30 μM A23187 was further added, followed by incubation (37° C., 30 minutes). The amount of leukotriene B4 produced as a result of incubation was determined by enzyme immunoassay and a 50% production inhibitory concentration (μM) against 5-LO of each test compound was calculated.

[1] = molecular target: T2, 15-LO obtained from reticulocyte of rabbit (Oryctolagus cuniculus, UniProt P12530); assay: 15-lipoxygenase (15-LO) inhibitory activity, 15-HETE production; type: biochemical; settings: 15-LO from reticulocyte of rabbit, linoleic acid
T2 construct: 15-LO obtained from reticulocyte of rabbit; from tissue; host or cells: rabbit reticulocytes
T2 sequence (P12530 1-663): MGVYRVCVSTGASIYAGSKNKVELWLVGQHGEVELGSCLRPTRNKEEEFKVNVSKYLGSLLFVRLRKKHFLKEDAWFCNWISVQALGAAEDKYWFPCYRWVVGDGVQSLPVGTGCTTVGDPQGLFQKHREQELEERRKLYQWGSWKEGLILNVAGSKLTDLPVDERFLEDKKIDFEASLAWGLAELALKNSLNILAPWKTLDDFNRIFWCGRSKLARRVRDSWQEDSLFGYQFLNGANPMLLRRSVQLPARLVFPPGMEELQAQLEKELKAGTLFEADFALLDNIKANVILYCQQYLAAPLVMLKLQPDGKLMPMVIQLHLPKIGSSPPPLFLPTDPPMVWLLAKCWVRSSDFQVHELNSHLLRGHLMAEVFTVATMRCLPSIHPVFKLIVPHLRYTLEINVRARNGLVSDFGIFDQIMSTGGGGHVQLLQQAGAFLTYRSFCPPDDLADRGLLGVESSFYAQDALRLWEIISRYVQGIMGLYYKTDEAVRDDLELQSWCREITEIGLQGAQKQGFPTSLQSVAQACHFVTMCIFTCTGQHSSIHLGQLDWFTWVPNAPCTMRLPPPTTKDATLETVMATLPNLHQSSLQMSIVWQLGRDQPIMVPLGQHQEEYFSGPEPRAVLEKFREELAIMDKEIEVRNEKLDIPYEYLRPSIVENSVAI
Procedure: A 15-LO inhibitory activity was measured by a partially modified process of a process of Auerbach et al. (Auerbach B. J, et al., Anal. Biochem.: 201, 375-80, 1992). That is, 15-LO obtained from reticulocyte of rabbit and each of test compounds dissolved in DMSO (final concentration: 1%) were preincubated (4° C., 15 minutes) in phosphoric acid buffer (pH 7.4) and 256 μM linoleic acid was further added, followed by incubation (4° C., 10 minutes). The amount of 15-HETE produced as a result of incubation was determined by spectrophotometry (OD660nm) and 50% production inhibitory concentration (μM) against 15-LO of each test compound was calculated. Compounds (R-3) and (R-4) (edaravone) of the following formulas were used as a control drug.

[2] = tested on: lipid peroxidation activity in a rat brain homogenate; assay: In vitro lipid peroxidation inhibition (rat brain homogenate, thiobarbituric acid process); type: biochemical; settings: read-out: In vitro lipid peroxidation inhibition 50% inhibitory concentration (IC50 μM), 500 μM cysteine, 5 μM sulfuric acid monobasic iron, 100 mM KCl, 37° C. for 30 minutes
Procedure: (§1) An in vitro lipid peroxidation inhibition of the compounds of the present invention was evaluated by measuring a lipid peroxidation activity in a rat brain homogenate according to a process of Malvy, c., et al., Biochemical and Biophysical Research Communications, 1980, Vol. 95, p. 734-737. That is, a rat brain was extracted and a 5-fold amount of an aqueous phosphoric acid buffered saline solution (pH 7.4) (hereinafter abbreviated to PBS) was added to the brain under ice cooling, followed by homogenization using a Teflon homogenizer and further centrifugation at 10,000 g for 20 minutes to prepare a brain homogenate as a supernatant. To the brain homogenate thus prepared, 500 μM cysteine, 5 μM sulfuric acid monobasic iron and 100 mM KCl were added, followed by incubation at 37° C. for 30 minutes. Malondialdehyde produced by the […] of lipid peroxidation was measured by a thiobarbituric acid process.

[3] = tested on: lipid peroxidation activity of each tissue homogenate (brain, heart and kidney); assay: Tissue migration properties: ex vivo lipid peroxidation inhibition in brain, heart and kidney homogenates; settings: SD male rats, 100 mg/kg intraperitoneally, 30 minutes after administration; for Ex vivo lipid peroxidation inhibition inhibition ratio (%) Brain: brain homogenate; for Ex vivo lipid peroxidation inhibition inhibition ratio (%) Heart: heart homogenate; for Ex vivo lipid peroxidation inhibition inhibition ratio (%) Kidney: kidney homogenate
Procedure: as §1
Tissue migration properties of the compounds of the present invention were evaluated by measuring an ex vivo lipid peroxidation inhibition. A solution or suspension prepared by dissolving or suspending each of test compounds in an aqueous physiological saline solution or a 1% poly oxy ethylene hydrogenated castor oil (NIKKOL HCO-60, manufactured by Nikko Chemicals Co., Ltd.) physiological saline solution was intraperitoneally administered to SD male rats (one group: 3 rats, 6 weeks old) (available from Nippon SLC Co., Ltd.) at a dose of 100 mg/kg. 30 Minutes after administration, rats were bled to death by cutting the carotid artery and then the brain, heart and kidney were extracted. A lipid peroxidation activity of each tissue homogenate was measured by the process described in Example 18. An inhibition ratio in each tissue of the compounds of the present invention was determined from the amount of lipid peroxidation produced of a control group (physiological saline administration group) and a test compound administration group.

[4] = tested on: abnormal behavior and fatality due to ferrous chloride; assay: In vivo antioxidative activity: ferrous chloride administration into spinal subarachnoid cavity of mice; set-up: species or system Slc:ICR male mice; settings: score after 60 minutes; for In vivo antioxidation action 50% inhibitory concentration (ID50), Intraperitoneal administration: intraperitoneal administration 30 minutes before ferrous chloride into spinal canal; for In vivo antioxidation action 50% inhibitory concentration (ID50), Oral administration: oral administration 30 minutes before ferrous chloride into spinal canal
Procedure: An in vivo antioxidative activity of the compounds of the present invention was evaluated from an abnormal behavior due to administration of ferrous chloride into spinal subarachnoid cavity of mice as well as an inhibitory effect of a fatality rate according to the process described in J. Med. Chem., 1997, Vol. 40, p. 559-573. Using Slc:ICR male mice (one group: 3 to 7 mice, 5 weeks old) (available from Nippon SLC Co., Ltd.), 5 μl of a 50 mM ferrous chloride physiological saline solution was administered to the spinal canal through the space between the fifth lumbar vertebrae and the sixth lumbar vertebrae. 20 to 60 minutes after administration of ferrous chloride, symptoms were observed and a score after 60 minutes was determined from symptoms shown in Table 32. […] As is apparent from the results, the compounds of the present invention have an in vivo antioxidation action.

[5] = Acute oral toxicity, single oral dose, mortality rate after 7 days; settings: mouse, in vivo, male mice, observed for 7 days
Procedure: A single dose of each of the compounds of the present invention was orally administered to male mice. After observing for 7 days, a mortality rate was determined.

Row | Structure (SMILES) | 5-LO, percentage given after >10 (5-lipoxygenase (5-LO)) | IC50 (5-lipoxygenase (5-LO)) | IC50 [1] | IC50 [2] | Ex vivo lipid peroxidation inhibition inhibition ratio (%) Brain [3] | Ex vivo lipid peroxidation inhibition inhibition ratio (%) Heart [3] | Ex vivo lipid peroxidation inhibition inhibition ratio (%) Kidney [3] | In vivo antioxidation action 50% inhibitory concentration (ID50), Intraperitoneal administration [4] | In vivo antioxidation action 50% inhibitory concentration (ID50), Oral administration [4] | LD50 at 7 days [5]
1 | CC1=NN(c2ccccc2)C(=O)C1 [Compound R-4, edaravone] | 32% | > 10000 nM | 5570 nM | – | – | – | – | – | – | –
2 | Cc1c(C)c2c(c(C)c1O)CCC(C)(C(=O)Nc1ccc(-n3ccnc3)cc1)O2 (stereo not drawn) [Compound R-2, reference compound] | – | – | – | 0.23 µM | 45% | 57% | 84% | 20 mg/kg | 53 mg/kg | –
3 | Cc1c(C)c2c(c(C)c1O)CC(C)(C(=O)Nc1ccc(-n3ccnc3)cc1)O2 (stereo not drawn) [Compound R-1, reference compound] | – | – | – | 0.23 µM | 68% | 59% | 75% | >30 mg/kg | >30 mg/kg | –
4 | Cc1c(C)c2c(c(C)c1N)CC(C)(CNc1ccc(-c3ccn[nH]3)cc1)O2 (racemic) [Compound B-2-5-1, 4-(±)-(5-amino-2,4,6,7-tetramethyldihydrobenzofuran-2-ylmethylamino)-phenyl-5-1H-pyrazole] | – | 160 nM | 1400 nM | 0.42 µM | 96% | 88% | 88% | 16 mg/kg | 17 mg/kg | > 2000 mg/kg
5 | Cc1c(C)c2c(c(C)c1N)CC(C)(CN1CCC(c3ccccc3)CC1)O2 (stereo not drawn) [Compound R-3, reference compound] | 34% | > 10000 nM | 3260 nM | – | – | – | – | – | – | < 300 mg/kg
6 | Cc1c(C)c2c(c(C)c1N)CC(C)(C(=O)N1CCN(c3ccc(-n4ccnc4)cc3)CC1)O2 (racemic) [Compound B-1-1, (±)-(5-amino-2,4,6,7-tetramethyldihydrobenzofuran-2-yl)-[4-(4-imidazol-1-ylphenyl)-piperazin-1-yl]carboxamide] | – | – | – | – | 96% | 88% | 95% | 4.4 mg/kg | 19 mg/kg | –
